The source of these data is patent US20240166652A1, “MODULATORS OF THE INTEGRATED STRESS PATHWAY” (Calico Life Sciences LLC, priority 2017, published 2024).

In general, EC50 refers to the concentration that produces a half-maximal response.

Some results are limits rather than exact numbers.

One experiment has as its system ATF4 luciferase reporter in HEK293T cells. The experiment is described as follows: ATF4-Luc assay (ATF4 luciferase reporter, tunicamycin-treated HEK293T cells). To be noted: HEK293T cells carrying the ATF4 luciferase reporter, 1 μg/mL tunicamycin, 7 hours. Type of experiment: cell-based, human. For orientation: A reporter such as luciferase makes a cellular process visible.
On to `O=C(COc1ccc(F)c(F)c1)NC12CCC(NC(=O)COc3ccc(F)c(F)c3)(CC1)[C@@H](O)C2` [Compound 683, N,N′-[(2S)-2-hydroxybicyclo[2.2.2]octane-1,4-diyl]bis[2-(3,4-difluorophenoxy)acetamide]], for which the EC50 is less than 10 nM.

The experiment is the same for the next values; noted with them: Homo sapiens, HEK-293T; HEK293T cells carrying the ATF4 luciferase reporter, 1 μg/mL tunicamycin, 7 hours.
Take `O=C(COc1ccccn1)NC12CCC(NC(=O)COc3cccc(Cl)c3)(CC1)[C@@H](O)C2` [Compound 662, 2-(3-chlorophenoxy)-N-[(2S)-2-hydroxy-4-{2-[(pyridin-2-yl)oxy]acetamido}bicyclo[2.2.2]octan-1-yl]acetamide]: the EC50 fell in the range of 250 to 500 nM.

As for `O=C(COc1ccccn1)NC12CCC(NC(=O)COc3ccc(Cl)c(F)c3)(CC1)[C@@H](O)C2` [Compound 663, 2-(4-chloro-3-fluorophenoxy)-N-[(2S)-2-hydroxy-4-{2-[(pyridin-2-yl)oxy]acetamido}bicyclo[2.2.2]octan-1-yl]acetamide], the EC50 lay in the range of 10 to 50 nM.

For the compound `Cc1cc(OCC(=O)NC23CCC(NC(=O)COc4ccc(Cl)c(Cl)c4)(CC2)[C@@H](O)C3)no1` [Compound 664, 2-(3,4-dichlorophenoxy)-N-[(2S)-2-hydroxy-4-{2-[(5-methyl-1,2-oxazol-3-yl)oxy]acetamido}bicyclo[2.2.2]octan-1-yl]acetamide], the EC50 lay in the range of 10 to 50 nM.

As for `Cc1cc(OCC(=O)NC23CCC(NC(=O)COc4ccc(Cl)c(F)c4)(CC2)[C@@H](O)C3)no1` [Compound 665, 2-(4-chloro-3-fluorophenoxy)-N-[(2S)-2-hydroxy-4-{2-[(5-methyl-1,2-oxazol-3-yl)oxy]acetamido}bicyclo[2.2.2]octan-1-yl]acetamide], the EC50 is 10 to 50 nM.

Turning to `COc1cc(OCC(=O)NC23CCC(NC(=O)COc4ccc(Cl)c(F)c4)(CC2)[C@@H](O)C3)ncn1` [Compound 666, 2-(4-chloro-3-fluorophenoxy)-N-[(2S)-2-hydroxy-4-{2-[(6-methoxypyrimidin-4-yl)oxy]acetamido}bicyclo[2.2.2]octan-1-yl]acetamide], the EC50 lay within 50 to 250 nM.

On to `COc1ccc(OCC(=O)NC23CCC(NC(=O)COc4ccc(Cl)c(F)c4)(CC2)[C@@H](O)C3)nc1` [Compound 667, 2-(4-chloro-3-fluorophenoxy)-N-[(2S)-2-hydroxy-4-{2-[(5-methoxypyridin-2-yl)oxy]acetamido}bicyclo[2.2.2]octan-1-yl]acetamide], for which the EC50 was greater than 2000 nM.

With `O=C(COc1ccc(Cl)c(F)c1)NC12CC(NC(=O)C3(c4ccc(Cl)cc4)CC3)(C1)C2` [Compound 668, N-{3-[2-(4-chloro-3-fluorophenoxy)acetamido]bicyclo[1.1.1]pentan-1-yl}-1-(4-chlorophenyl)cyclopropane-1-carboxamide], the EC50 was greater than 2000 nM.

On to `O=C(O)/C=C1\CC2(NC(=O)COc3ccc(Cl)c(F)c3)CCC1(NC(=O)COc1ccc(Cl)c(F)c1)CC2` [Compound 669, (2E)-{1,4-bis[2-(4-chloro-3-fluorophenoxy)acetamido]bicyclo[2.2.2]octan-2-ylidene}acetic Acid], for which the EC50 lay within 50 to 250 nM.

With `O=C(COc1ccc(Cl)c(F)c1)NC12CCC(O)C(NC(=O)COc3ccc(Cl)c(F)c3)(CC1)C2` (centres unmarked) [Compound 670, N,N′-(2-hydroxybicyclo[3.2.1]octane-1,5-diyl)bis[2-(4-chloro-3-fluorophenoxy)acetamide]], the EC50 lay within 500 to 2000 nM.

For `O=C(COc1ccc(Cl)c(F)c1)NC12CCC(=O)C(NC(=O)COc3ccc(Cl)c(F)c3)(CC1)C2` (centres unmarked) [Compound 671, N,N′-(2-oxobicyclo[3.2.1]octane-1,5-diyl)bis[2-(4-chloro-3-fluorophenoxy)acetamide]], the EC50 lay within 500 to 2000 nM.

As for `CCOC(=O)/C=C1\CC2(NC(=O)COc3ccc(Cl)c(F)c3)CCC1(NC(=O)COc1ccc(Cl)c(F)c1)CC2` [Compound 672, ethyl (2E)-{1,4-bis[2-(4-chloro-3-fluorophenoxy)acetamido]bicyclo[2.2.2]octan-2-ylidene}acetate], the EC50 was in the range of 10 to 50 nM.

On to `Cc1cc2nc(CNC34CCC(NC(=O)COc5ccc(C(F)(F)F)c(F)c5)(CC3)[C@@H](O)C4)[nH]c2cc1C` [Compound 673, N-[(2S)-4-{[(5,6-dimethyl-1H-benzimidazol-2-yl)methyl]amino}-2-hydroxybicyclo[2.2.2]octan-1-yl]-2-[3-fluoro-4-(trifluoromethyl)phenoxy]acetamide], for which the EC50 was 50 to 250 nM.

Regarding `COc1cncc(OCC(=O)NC23CCC(NC(=O)COc4ccc(Cl)c(F)c4)(CC2)[C@@H](O)C3)c1` [Compound 675, 2-(4-chloro-3-fluorophenoxy)-N-[(2S)-2-hydroxy-4-{2-[(5-methoxypyridin-3-yl)oxy]acetamido}bicyclo[2.2.2]octan-1-yl]acetamide], the EC50 lay within 10 to 50 nM.

Regarding `COCCN1C(=O)C2(NC(=O)COc3ccc(Cl)c(F)c3)CCC1(NC(=O)COc1ccc(Cl)c(F)c1)CC2` [Compound 676, N,N′-[2-(2-methoxyethyl)-3-oxo-2-azabicyclo[2.2.2]octane-1,4-diyl]bis[2-(4-chloro-3-fluorophenoxy)acetamide]], the EC50 is 250 to 500 nM.

As to `CCCN1C(=O)C2(NC(=O)COc3ccc(Cl)c(F)c3)CCC1(NC(=O)COc1ccc(Cl)c(F)c1)CC2` [Compound 677, N,N′-(3-oxo-2-propyl-2-azabicyclo[2.2.2]octane-1,4-diyl)bis[2-(4-chloro-3-fluorophenoxy)acetamide]], the EC50 is 500 to 2000 nM.

As to `O=C(COc1ccc(Cl)c(F)c1)NC12CCC(NC(=O)COc3ccc(Cl)c(F)c3)(CC1)N(CCO)C2=O` [Compound 679, N,N′-[2-(2-hydroxyethyl)-3-oxo-2-azabicyclo[2.2.2]octane-1,4-diyl]bis[2-(4-chloro-3-fluorophenoxy)acetamide]], the EC50 is 50 to 250 nM.

`O=C(COc1ccc(F)c(F)c1)NC12CCC(NC(=O)COc3ccc(Cl)c(Cl)c3)(CC1)C(=O)N2` [Compound 680, 2-(3,4-dichlorophenoxy)-N-{1-[2-(3,4-difluorophenoxy)acetamido]-3-oxo-2-azabicyclo[2.2.2]octan-4-yl}acetamide]: the EC50 is less than 10 nM.

In the case of `O=C(O)CN(CC(=O)NC12CC(NC(=O)COc3ccc(Cl)c(F)c3)(C1)C2)c1ccc(Cl)cc1` [Compound 684, {[2-({3-[2-(4-chloro-3-fluorophenoxy)acetamido]bicyclo[1.1.1]pentan-1-yl}amino)-2-oxoethyl](4-chlorophenyl)amino}acetic Acid], the EC50 was greater than 2000 nM.

As to `CC(C)(C)OC(=O)CN(CC(=O)NC12CC(NC(=O)COc3ccc(Cl)c(F)c3)(C1)C2)c1ccc(Cl)cc1` [Compound 685, tert-butyl {[2-({3-[2-(4-chloro-3-fluorophenoxy)acetamido]bicyclo[1.1.1]pentan-1-yl}amino)-2-oxoethyl](4-chlorophenyl)amino}acetate], the EC50 was greater than 2000 nM.

With `O=C(O)CN(CCOc1ccc(Cl)c(F)c1)C12CC(NC(=O)COc3ccc(Cl)c(F)c3)(C1)C2` [Compound 686, ({3-[2-(4-chloro-3-fluorophenoxy)acetamido]bicyclo[1.1.1]pentan-1-yl}[2-(4-chloro-3-fluorophenoxy)ethyl]amino)acetic Acid], the EC50 fell in the range of 500 to 2000 nM.

For `O=C(O)CN(CCCOc1ccc(Cl)c(F)c1)C12CC(NC(=O)COc3ccc(Cl)c(F)c3)(C1)C2` [Compound 687, ({3-[2-(4-chloro-3-fluorophenoxy)acetamido]bicyclo[1.1.1]pentan-1-yl}[3-(4-chloro-3-fluorophenoxy)propyl]amino)acetic Acid], the EC50 fell in the range of 500 to 2000 nM.

In the case of `CC(C)(C)OC(=O)CN(CCOc1ccc(Cl)c(F)c1)C12CC(NC(=O)COc3ccc(Cl)c(F)c3)(C1)C2` [Compound 688, tert-butyl ({3-[2-(4-chloro-3-fluorophenoxy)acetamido]bicyclo[1.1.1]pentan-1-yl}[2-(4-chloro-3-fluorophenoxy)ethyl]amino)acetate], the EC50 is 50 to 250 nM.

For `O=C(COc1ccc2c(c1)OC(F)(F)C(F)(F)O2)NC12CCC(NC(=O)COc3ccc(Cl)c(F)c3)(CC1)C(=O)N2` [Compound 689, 2-(4-chloro-3-fluorophenoxy)-N-(3-oxo-1-{2-[(2,2,3,3-tetrafluoro-2,3-dihydro-1,4-benzodioxin-6-yl)oxy]acetamido}-2-azabicyclo[2.2.2]octan-4-yl)acetamide], the EC50 is 50 to 250 nM.

In the case of `COc1ncc(OCC(=O)NC23CCC(NC(=O)COc4ccc(Cl)c(F)c4)(CC2)C(=O)N3)cn1` [Compound 690, 2-(4-chloro-3-fluorophenoxy)-N-(1-{2-[(2-methoxypyrimidin-5-yl)oxy]acetamido}-3-oxo-2-azabicyclo[2.2.2]octan-4-yl)acetamide], the EC50 is 250 to 500 nM.

Take `O=C(COn1nnc2cccnc21)NC12CCC(NC(=O)COc3ccc(Cl)c(F)c3)(CC1)C(=O)N2` [Compound 691, 2-(4-chloro-3-fluorophenoxy)-N-(3-oxo-1-{2-[(3H-[1,2,3]-triazolo[4,5-b]pyridin-3-yl)oxy]acetamido}-2-azabicyclo[2.2.2]octan-4-yl)acetamide]: the EC50 was greater than 2000 nM.

With `O=C(COc1ccc(Cl)c(F)c1)NC12CC(N(CCO)CCCOc3ccc(Cl)c(F)c3)(C1)C2` [Compound 692, 2-(4-chloro-3-fluorophenoxy)-N-(3-{[3-(4-chloro-3-fluorophenoxy)propyl](2-hydroxyethyl)amino}bicyclo[1.1.1]pentan-1-yl)acetamide], the EC50 was 250 to 500 nM.

For the compound `CN1Cc2ccc(OCC(=O)NC34CCC(NC(=O)COc5ccc(Cl)c(F)c5)(CC3)[C@@H](O)C4)cc2C1=O` [Compound 695, 2-(4-chloro-3-fluorophenoxy)-N-[(2S)-2-hydroxy-4-{2-[(2-methyl-3-oxo-2,3-dihydro-1H-isoindol-5-yl)oxy]acetamido}bicyclo[2.2.2]octan-1-yl]acetamide], the EC50 was in the range of 500 to 2000 nM.

Regarding `CN(CCCOc1ccc(Cl)cc1)C12CCC(NC(=O)COc3ccc(Cl)c(F)c3)(CC1)[C@@H](O)C2` [Compound 696, 2-(4-chloro-3-fluorophenoxy)-N-[(2S)-4-{[3-(4-chlorophenoxy)propyl](methyl)amino}-2-hydroxybicyclo[2.2.2]octan-1-yl]acetamide], the EC50 was 10 to 50 nM.
